Tests used:
M14 = assay: cells; settings: Homo sapiens, M14, 48 h; for CC50: read-out: LC50
MDA-MB-468 = assay: cells; settings: Homo sapiens, MDA-MB-468, 48 h; for CC50: read-out: LC50
HCT-116 = assay: cells; settings: Homo sapiens, HCT-116, 48 h; for CC50: read-out: LC50
UACC-257 = assay: cells; settings: Homo sapiens, UACC-257, 48 h; for CC50: read-out: LC50
NCI-H522 = assay: cells; settings: Homo sapiens, NCI-H522, 48 h; for CC50: read-out: LC50
A498 = assay: cells; settings: Homo sapiens, A498, 48 h; for CC50: read-out: LC50
MOLT-4 = assay: cells; settings: Homo sapiens, MOLT-4, 48 h; for CC50: read-out: LC50
KM12 = assay: cells; settings: Homo sapiens, KM12, 48 h; for CC50: read-out: LC50
T-47D = assay: cells; settings: Homo sapiens, T47D, 48 h; for CC50: read-out: LC50
NCI-H460 = assay: cells; settings: Homo sapiens, NCI-H460, 48 h; for CC50: read-out: LC50
SK-MEL-5 = assay: cells; settings: Homo sapiens, SK-MEL-5, 48 h; for CC50: read-out: LC50
SF-295 = assay: cells; settings: Homo sapiens, SF-295, 48 h; for CC50: read-out: LC50
SK-OV-3 = assay: cells; settings: Homo sapiens, SK-OV-3, 48 h; for CC50: read-out: LC50
A549/ATCC = assay: cells; settings: Homo sapiens, A549, 48 h; for CC50: read-out: LC50
COLO 205 = assay: cells; settings: Homo sapiens, COLO 205, 48 h; for CC50: read-out: LC50
RPMI-8226 = assay: cells; settings: Homo sapiens, RPMI-8226, 48 h; for CC50: read-out: LC50
LOX IMVI = assay: cells; settings: Homo sapiens, 48 h; for CC50: read-out: LC50, LOX IMVI, 48 h
OVCAR-4 = assay: cells; settings: Homo sapiens, OVCAR-4, 48 h; for CC50: read-out: LC50
HT29 = assay: cells; settings: Homo sapiens, HT-29, 48 h; for CC50: read-out: LC50
60 cancer cell lines = assay: NCI-60 one-dose screen (10 μM); assay type: cell-based; settings: Homo sapiens; one dose of 10 μM, mean over 60 cancer cell lines; read-out: Mean Growth Percent (MGP)
From the text: Additionally, the mean of the growth percentages (MGP) of each compound against all the 60 cancer cell lines is also reported, which is used as one of the selection criteria to continue with tests at five concentration doses.

786-0 = assay: cells; settings: Homo sapiens, 786-0, 48 h; for CC50: read-out: LC50
OVCAR-5 = assay: cells; settings: Homo sapiens, OVCAR-5, 48 h; for CC50: read-out: LC50
NCI-H23 = assay: cells; settings: Homo sapiens, NCI-H23, 48 h; for CC50: read-out: LC50
UO-31 = assay: cells; settings: Homo sapiens, UO-31, 48 h; for CC50: read-out: LC50
SK-MEL-2 = assay: cells; settings: Homo sapiens, SK-MEL-2, 48 h; for CC50: read-out: LC50
MCF7 = assay: cells; settings: Homo sapiens, MCF7, 48 h; for CC50: read-out: LC50
MDA-MB-231/ATCC = assay: cells; settings: Homo sapiens, MDA-MB-231, 48 h; for CC50: read-out: LC50
NCI-H226 = assay: cells; settings: Homo sapiens, NCI-H226, 48 h; for CC50: read-out: LC50
SF-539 = assay: cells; settings: Homo sapiens, SF-539, 48 h; for CC50: read-out: LC50, SF-539, 48 h
U251 = assay: cells; settings: Homo sapiens, U-251, 48 h; for GI50: U251, 48 h; for CC50: read-out: LC50
TK-10 = assay: cells; settings: Homo sapiens, TK-10, 48 h; for CC50: read-out: LC50
DU-145 = assay: cells; settings: Homo sapiens, DU-145, 48 h; for CC50: read-out: LC50
SN12C = assay: cells; settings: Homo sapiens, 48 h; for CC50: read-out: LC50
HCT-15 = assay: cells; settings: Homo sapiens, HCT-15, 48 h; for CC50: read-out: LC50
HL-60(TB) = assay: cells; settings: Homo sapiens, HL-60, 48 h; for CC50: read-out: LC50
HOP-92 = assay: cells; settings: Homo sapiens, HOP-92, 48 h; for CC50: read-out: LC50

## CN(C)c1nc(NCCNS(=O)(=O)c2ccc(C(=O)/C=C/c3ccc(F)cc3)cc2)nc(N2CCOCC2)n1 [23f]
M14
  GI50: 15 µM
  CC50: 62.2 µM
MDA-MB-468
  GI50: 8.08 µM
  CC50: 54.7 µM
HCT-116
  GI50: 2.29 µM
  CC50: 16.8 µM
UACC-257
  GI50: 15.5 µM
  CC50: 54.9 µM
NCI-H522
  GI50: 13.3 µM
  CC50: 53.2 µM
A498
  GI50: 11.9 µM
  CC50: 49.9 µM
MOLT-4
  GI50: 4.69 µM
  CC50: > 100 µM
KM12
  GI50: 13.4 µM
  CC50: 70.3 µM
T-47D
  GI50: 11.9 µM
  CC50: 94.2 µM
NCI-H460
  GI50: 15.7 µM
  CC50: 69.4 µM
SK-MEL-5
  GI50: 15.7 µM
  CC50: 54.4 µM
SF-295
  GI50: 11.3 µM
  CC50: 50.1 µM
SK-OV-3
  GI50: 13.8 µM
  CC50: 55.5 µM
A549/ATCC
  GI50: 13.7 µM
  CC50: 56.8 µM
COLO 205
  GI50: 14.6 µM
  CC50: 62.4 µM
RPMI-8226
  GI50: 1.91 µM
  CC50: > 100 µM
LOX IMVI
  GI50: 1.63 µM
  CC50: 6.19 µM
OVCAR-4
  GI50: 11.9 µM
  CC50: 51.1 µM
HT29
  GI50: 2.84 µM
  CC50: 32.3 µM
60 cancer cell lines
  activity at 10 µM: 27.6%
786-0
  GI50: 14.5 µM
  CC50: 57 µM
OVCAR-5
  GI50: 13.6 µM
  CC50: 52.6 µM
NCI-H23
  GI50: 14.6 µM
  CC50: 54.3 µM
UO-31
  GI50: 11 µM
  CC50: 47.9 µM
SK-MEL-2
  GI50: 13.7 µM
  CC50: 52.7 µM
MCF7
  GI50: 2.99 µM
  CC50: 46.7 µM
MDA-MB-231/ATCC
  GI50: 12.3 µM
  CC50: 51.8 µM
NCI-H226
  GI50: 12.3 µM
  CC50: 64.7 µM
SF-539
  GI50: 13.2 µM
  CC50: 51.1 µM
U251
  GI50: 4.74 µM
  CC50: 41.5 µM
TK-10
  GI50: 15.3 µM
  CC50: 53.8 µM
DU-145
  GI50: 14.4 µM
  CC50: 53.8 µM
SN12C
  GI50: 12 µM
  CC50: 50 µM
HCT-15
  GI50: 2.15 µM
  CC50: 13.7 µM
HL-60(TB)
  GI50: 14.7 µM
  CC50: > 100 µM
HOP-92
  GI50: 12.7 µM
  CC50: 63.5 µM

## CN(C)c1nc(NCCNS(=O)(=O)c2ccc(C(=O)/C=C/c3ccc(Cl)cc3)cc2)nc(N2CCOCC2)n1 [23e]
M14
  GI50: 14.1 µM
  CC50: 56.9 µM
MDA-MB-468
  GI50: 11 µM
  CC50: 56 µM
HCT-116
  GI50: 11.7 µM
  CC50: 50.7 µM
UACC-257
  GI50: 16.2 µM
  CC50: 55.7 µM
NCI-H522
  GI50: 14 µM
  CC50: 53.3 µM
A498
  GI50: 12.4 µM
  CC50: 50.8 µM
MOLT-4
  GI50: 3.38 µM
  CC50: > 100 µM
KM12
  GI50: 16.9 µM
  CC50: > 100 µM
T-47D
  GI50: 16.7 µM
  CC50: > 100 µM
NCI-H460
  GI50: 16.8 µM
  CC50: 67.1 µM
SK-MEL-5
  GI50: 16.3 µM
  CC50: 55.6 µM
SF-295
  GI50: 13.3 µM
  CC50: 52.8 µM
SK-OV-3
  GI50: 15.3 µM
  CC50: 59.5 µM
A549/ATCC
  GI50: 14.4 µM
  CC50: 56.4 µM
COLO 205
  GI50: 16.7 µM
  CC50: 70.8 µM
RPMI-8226
  GI50: 2.55 µM
  CC50: > 100 µM
LOX IMVI
  GI50: 1.71 µM
  CC50: 6.13 µM
OVCAR-4
  GI50: 14.7 µM
  CC50: 57.2 µM
HT29
  GI50: 3.21 µM
  CC50: 36.4 µM
60 cancer cell lines
  activity at 10 µM: 6.74%
786-0
  GI50: 14.8 µM
  CC50: 55.9 µM
OVCAR-5
  GI50: 15 µM
  CC50: 53.9 µM
NCI-H23
  GI50: 15.7 µM
  CC50: 55.6 µM
UO-31
  GI50: 11.4 µM
  CC50: 48.4 µM
SK-MEL-2
  GI50: 16.5 µM
  CC50: 56 µM
MCF7
  GI50: 2.37 µM
  CC50: 34.6 µM
MDA-MB-231/ATCC
  GI50: 13.3 µM
  CC50: 52.7 µM
NCI-H226
  GI50: 15.7 µM
  CC50: 73.8 µM
SF-539
  GI50: 14.7 µM
  CC50: 52.9 µM
U251
  GI50: 8.16 µM
  CC50: 45.9 µM
TK-10
  GI50: 15.8 µM
  CC50: 54.7 µM
DU-145
  GI50: 17.2 µM
  CC50: 67.3 µM
SN12C
  GI50: 14.4 µM
  CC50: 53.8 µM
HCT-15
  GI50: 2.07 µM
  CC50: 9.93 µM
HL-60(TB)
  GI50: 14.7 µM
  CC50: > 100 µM
HOP-92
  GI50: 15.1 µM
  CC50: 67.8 µM

— paper PMC11012124, “Synthesis of Novel Triazine-Based Chalcones and 8,9-dihydro-7H-pyrimido[4,5-b][1,4]diazepines as Potential Leads in the Search of Anticancer, Antibacterial and Antifungal Agents” (International Journal of Molecular Sciences, 2024)
